Assay results reported in ChEMBL document CHEMBL6109122 (J Med Chem, 2025).
Active and inactive are the calls of the source. No cut-off for these calls is given here.

Target: T1, Protein cereblon/Non-receptor tyrosine-protein kinase TYK2 (Homo sapiens, UniProt P29597+Q96SW2)
Experiment: PROTAC activity at CRBN/TYK2 in human Jurkat cells assessed as induction of degradation of TYK2 at 1 nM measured after 10 hrs by Western blot analysis relative to control
Assay type: cell-based
Details: not given

T1 sequence (P29597 whole entry, looked up): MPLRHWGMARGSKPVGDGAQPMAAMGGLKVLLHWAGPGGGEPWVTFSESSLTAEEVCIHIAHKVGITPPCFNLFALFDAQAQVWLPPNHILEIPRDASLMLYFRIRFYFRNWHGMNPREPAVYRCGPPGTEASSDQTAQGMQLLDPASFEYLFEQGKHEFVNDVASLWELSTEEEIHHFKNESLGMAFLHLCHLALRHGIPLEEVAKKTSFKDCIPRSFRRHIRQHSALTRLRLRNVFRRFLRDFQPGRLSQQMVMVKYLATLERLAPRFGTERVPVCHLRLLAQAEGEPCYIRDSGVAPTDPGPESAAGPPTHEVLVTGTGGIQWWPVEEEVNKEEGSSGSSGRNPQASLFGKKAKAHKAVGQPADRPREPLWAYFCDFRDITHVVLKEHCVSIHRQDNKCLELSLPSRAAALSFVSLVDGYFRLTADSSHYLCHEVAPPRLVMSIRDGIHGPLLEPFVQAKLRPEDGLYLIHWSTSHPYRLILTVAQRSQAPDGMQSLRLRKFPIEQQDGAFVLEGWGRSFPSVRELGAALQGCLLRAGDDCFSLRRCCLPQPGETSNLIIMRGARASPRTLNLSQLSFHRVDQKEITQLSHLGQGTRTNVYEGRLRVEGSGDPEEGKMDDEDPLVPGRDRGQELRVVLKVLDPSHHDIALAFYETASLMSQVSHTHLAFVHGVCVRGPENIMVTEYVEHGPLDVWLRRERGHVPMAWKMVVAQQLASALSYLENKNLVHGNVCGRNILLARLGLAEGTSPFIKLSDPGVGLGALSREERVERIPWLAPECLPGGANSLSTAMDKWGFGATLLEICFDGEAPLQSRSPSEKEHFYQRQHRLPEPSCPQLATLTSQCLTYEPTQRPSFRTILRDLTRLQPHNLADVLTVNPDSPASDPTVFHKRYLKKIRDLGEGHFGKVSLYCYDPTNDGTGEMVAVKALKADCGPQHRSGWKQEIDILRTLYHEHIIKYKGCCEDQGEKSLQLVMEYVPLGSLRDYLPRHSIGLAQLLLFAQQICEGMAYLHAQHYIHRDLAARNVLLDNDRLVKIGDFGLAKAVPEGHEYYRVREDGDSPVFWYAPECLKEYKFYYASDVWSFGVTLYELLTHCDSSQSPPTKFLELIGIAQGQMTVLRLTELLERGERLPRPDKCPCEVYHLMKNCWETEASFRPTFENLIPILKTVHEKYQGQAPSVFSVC
T1 sequence (Q96SW2 whole entry, looked up): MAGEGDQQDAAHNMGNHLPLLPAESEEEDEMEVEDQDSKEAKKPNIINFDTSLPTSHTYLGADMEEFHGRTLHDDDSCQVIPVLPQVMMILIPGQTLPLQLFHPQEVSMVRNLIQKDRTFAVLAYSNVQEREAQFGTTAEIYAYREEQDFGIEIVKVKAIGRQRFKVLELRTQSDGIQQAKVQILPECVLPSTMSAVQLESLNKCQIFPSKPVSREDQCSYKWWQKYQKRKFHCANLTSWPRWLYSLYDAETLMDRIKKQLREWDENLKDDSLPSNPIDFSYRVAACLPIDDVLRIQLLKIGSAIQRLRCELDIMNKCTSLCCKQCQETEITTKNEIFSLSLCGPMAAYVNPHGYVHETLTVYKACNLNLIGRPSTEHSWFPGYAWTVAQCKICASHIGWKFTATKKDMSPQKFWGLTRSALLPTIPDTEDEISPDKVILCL

Row | Structure (SMILES) | Activity
1 | CNC(=O)c1cnc(Nc2ccc(C(=O)N3CC(N4CCN(c5ccc6c(c5)C(=O)N(C5CCC(=O)NC5=O)C6=O)CC4)C3)cn2)cc1Nc1cccc(-c2ncc(F)cn2)c1OC (stereo not given) | 44%
2 | CNC(=O)c1cnc(Nc2ccc(C(=O)N3CCN(C4CCN(c5ccc6c(c5)C(=O)N(C5CCC(=O)NC5=O)C6=O)CC4)CC3)cn2)cc1Nc1cccc(-c2ncc(F)cn2)c1OC (stereo not given) | inactive
3 | CNC(=O)c1cnc(Nc2ccc(C(=O)N3CCC(CN4CCN(c5ccc6c(c5)C(=O)N(C5CCC(=O)NC5=O)C6=O)CC4)CC3)cn2)cc1Nc1cccc(-c2ncc(F)cn2)c1OC (stereo not given) | 2%

Now from value to compound:

Row | Activity | Structure (SMILES)
4 | 17% | CNC(=O)c1cnc(Nc2ccc(C(=O)N3CC4(CC(Nc5ccc6c(c5)C(=O)N(C5CCC(=O)NC5=O)C6=O)C4)C3)cn2)cc1Nc1cccc(-c2ncc(F)cn2)c1OC (stereo not given)
5 | 42% | CNC(=O)c1cnc(Nc2ccc(C(=O)N3CC4(CCN(c5ccc6c(c5)C(=O)N(C5CCC(=O)NC5=O)C6=O)CC4)C3)cn2)cc1Nc1cccc(-c2ncc(F)cn2)c1OC (stereo not given)
6 | 46% | CNC(=O)c1cnc(Nc2ccc(C(=O)N3CC4(C3)CN(c3ccc5c(c3)C(=O)N(C3CCC(=O)NC3=O)C5=O)C4)cn2)cc1Nc1cccc(-c2ncc(F)cn2)c1OC (stereo not given)

Tested on: not listed separately
Experiment: Metabolic stability in mouse liver microsomes assessed as half life measured up to 120 mins by LC-MS/MS analysis
Assay type: ADME, Microsome
Details: not given

Row | Structure (SMILES) | half-life [h]
7 | CNC(=O)c1cnc(Nc2ccc(C(=O)N3CC4(C3)CN(c3ccc5c(c3)C(=O)N(C3CCC(=O)NC3=O)C5=O)C4)cn2)cc1Nc1cccc(-c2ncc(F)cn2)c1OC (stereo not given) | 1.73

Target: T1, Protein cereblon/Non-receptor tyrosine-protein kinase TYK2
Experiment: PROTAC activity at CRBN/TYK2 in human Jurkat cells assessed as induction of degradation of TYK2 at 10 nM measured after 10 hrs by Western blot analysis relative to control
Assay type: cell-based
Details: not given

Row | Structure (SMILES) | Activity [%]
8 | CNC(=O)c1cnc(Nc2ccc(C(=O)N3CC(N4CCN(c5ccc6c(c5)C(=O)N(C5CCC(=O)NC5=O)C6=O)CC4)C3)cn2)cc1Nc1cccc(-c2ncc(F)cn2)c1OC (stereo not given) | 77
9 | CNC(=O)c1cnc(Nc2ccc(C(=O)N3CCN(C4CCN(c5ccc6c(c5)C(=O)N(C5CCC(=O)NC5=O)C6=O)CC4)CC3)cn2)cc1Nc1cccc(-c2ncc(F)cn2)c1OC (stereo not given) | 17
10 | CNC(=O)c1cnc(Nc2ccc(C(=O)N3CCC(CN4CCN(c5ccc6c(c5)C(=O)N(C5CCC(=O)NC5=O)C6=O)CC4)CC3)cn2)cc1Nc1cccc(-c2ncc(F)cn2)c1OC (stereo not given) | 78

Further lines, results first:

Row | Activity [%] | Structure (SMILES)
11 | 62 | CNC(=O)c1cnc(Nc2ccc(C(=O)N3CC4(CC(Nc5ccc6c(c5)C(=O)N(C5CCC(=O)NC5=O)C6=O)C4)C3)cn2)cc1Nc1cccc(-c2ncc(F)cn2)c1OC (stereo not given)
12 | 69 | CNC(=O)c1cnc(Nc2ccc(C(=O)N3CC4(CCN(c5ccc6c(c5)C(=O)N(C5CCC(=O)NC5=O)C6=O)CC4)C3)cn2)cc1Nc1cccc(-c2ncc(F)cn2)c1OC (stereo not given)
13 | 83 | CNC(=O)c1cnc(Nc2ccc(C(=O)N3CC4(C3)CN(c3ccc5c(c3)C(=O)N(C3CCC(=O)NC3=O)C5=O)C4)cn2)cc1Nc1cccc(-c2ncc(F)cn2)c1OC (stereo not given)

Tested on: not listed separately
Experiment: Metabolic stability in mouse liver microsomes assessed as intrinsic clearance measured up to 120 mins by LC-MS/MS analysis
Assay type: ADME, Microsome
Details: read-out: CLH

Row | Structure (SMILES) | CLint scaled [L/h/kg]
14 | CNC(=O)c1cnc(Nc2ccc(C(=O)N3CC4(C3)CN(c3ccc5c(c3)C(=O)N(C3CCC(=O)NC3=O)C5=O)C4)cn2)cc1Nc1cccc(-c2ncc(F)cn2)c1OC (stereo not given) | 3.18

Target: T1, Protein cereblon/Non-receptor tyrosine-protein kinase TYK2
Experiment: PROTAC activity at CRBN/TYK2 in human Jurkat cells assessed as induction of degradation of TYK2 at 100 nM measured after 10 hrs by Western blot analysis relative to control
Assay type: cell-based
Details: not given

Row | Structure (SMILES) | Activity
15 | CNC(=O)c1cnc(Nc2ccc(C(=O)N3CC(N4CCN(c5ccc6c(c5)C(=O)N(C5CCC(=O)NC5=O)C6=O)CC4)C3)cn2)cc1Nc1cccc(-c2ncc(F)cn2)c1OC (stereo not given) | 67%
16 | CNC(=O)c1cnc(Nc2ccc(C(=O)N3CCN(C4CCN(c5ccc6c(c5)C(=O)N(C5CCC(=O)NC5=O)C6=O)CC4)CC3)cn2)cc1Nc1cccc(-c2ncc(F)cn2)c1OC (stereo not given) | 7%
17 | CNC(=O)c1cnc(Nc2ccc(C(=O)N3CCC(CN4CCN(c5ccc6c(c5)C(=O)N(C5CCC(=O)NC5=O)C6=O)CC4)CC3)cn2)cc1Nc1cccc(-c2ncc(F)cn2)c1OC (stereo not given) | inactive

Other lines, results leading:

Row | Activity | Structure (SMILES)
18 | 48% | CNC(=O)c1cnc(Nc2ccc(C(=O)N3CC4(CC(Nc5ccc6c(c5)C(=O)N(C5CCC(=O)NC5=O)C6=O)C4)C3)cn2)cc1Nc1cccc(-c2ncc(F)cn2)c1OC (stereo not given)
19 | 61% | CNC(=O)c1cnc(Nc2ccc(C(=O)N3CC4(CCN(c5ccc6c(c5)C(=O)N(C5CCC(=O)NC5=O)C6=O)CC4)C3)cn2)cc1Nc1cccc(-c2ncc(F)cn2)c1OC (stereo not given)
20 | 68% | CNC(=O)c1cnc(Nc2ccc(C(=O)N3CC4(C3)CN(c3ccc5c(c3)C(=O)N(C3CCC(=O)NC3=O)C5=O)C4)cn2)cc1Nc1cccc(-c2ncc(F)cn2)c1OC (stereo not given)
